The text below walks through data of patent US20110183978A1, “Phenylpyri(mi)dinylazoles” (Bayer CropScience AG, priority 2009, published 2011).

Read-outs that look alike come from different tables or passages of the source.

The test system of one data set is Plasmopara viticola. As to the kind of experiment: Example N: in vivo test on Plasmopara viticola (downy mildew, vine/protective). The note with it: 144 h, vine, protective, assessment 6 days after inoculation, read-out: % Wirkungsgrad. An outline of the steps: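 Assessment of downy mildew on vines took place 6 days post-inoculation, after 1 day of moist incubation. Before infection, the young plants received a protective spray of compound emulsified with alkylaryl polyglycol ethers and diluted with water to the stated application rate.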

The subject of a further data set is Botrytis cinerea. Kind of data set: Example P: in vivo test on Botrytis cinerea (gray mould on bean/protective). The conditions noted are these: 48 h, bean, protective, 250 ppm active substance, assessed 2 days after inoculation, read-out: % Wirkungsgrad (activity level). The method, boiled down:
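Infection blotch size on leaves was scored 2 days after placing 2 Botrytis-colonised agar pieces per leaf. Inoculation followed drying of a protective spray applied to young plants at the stated dosage. Spray was prepared by diluting compound with solvent and alkylaryl polyglycol ether emulsifier in water.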

Data set [1] concerns Fusarium nivale (var. majus). As to the kind of experiment: whole plant or invertebrate. The note with it: Microdochium nivale, in Triticum aestivum, 120 h, read-out: % Wirkungsgrad (activity level). Type of data set: in vivo.
Another data set relates to Sphaerotheca fuliginea. As to the kind of experiment: Example L: in vivo test on Sphaerotheca fuliginea (powdery mildew on cucumber/protective). The note with it: Podosphaera fuliginea, 168 h, cucumber, protective, assessment 7 days after inoculation, read-out: % Wirkungsgrad. An outline of the steps:
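Young cucumber plants sprayed at stated dosage with compound in DMF/alkylaryl polyglycol ether emulsifier diluted in water; inoculated with S. fuliginea spores one day later. Kept in greenhouse at 70% relative humidity, 23° C; protective activity assessed 7 days after inoculation.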

For a further data set, the system named is Septoria tritici. As to the kind of experiment: Example R: in vivo test on Septoria tritici (leaf blotch in wheat/protective). The note with it: Zymoseptoria tritici, 504 h, wheat, protective, 1000 ppm active substance, assessed 21 days after inoculation, read-out: % Wirkungsgrad (activity level). As to the method:
Solvent: 49 parts by weight N,N-dimethylacetamide Emulsifier: 1 part by weight alkylaryl polyglycol ethers For the preparation of a suitable active substance preparation, 1 part by weight of active substance is mixed with the stated quantities of solvent and emulsifier and the concentrate is diluted to the desired concentration with water. For the testing for protective activity, young plants are sprayed with the active substance preparation at the stated application dosage. After drying of the spray coating, the plants are sprayed with a spore suspension of Septoria tritici. […] 21 days after the inoculation, the assessment takes place.

For another data set, the system named is Alternaria solani. Kind of data set: Example M: in vivo test on Alternaria solani (leaf blotch disease/tomato/protective). The note with it: 168 h, tomato, protective, 500 ppm active substance, assessed 7 days after inoculation, read-out: % Wirkungsgrad (activity level). The method, boiled down: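 Alternaria solani infection on tomato scored 7 days post-inoculation. Before inoculation, young plants received a protective spray at the stated application dose; formulation was compound mixed with N,N-dimethylformamide and emulsifier, water-diluted.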

The next data set has as its system Leptosphaeria nodorum. As to the kind of experiment: Example Q: in vivo test on Leptosphaeria nodorum (glume blotch in wheat/protective). The note with it: Parastagonospora nodorum, 192 h, wheat, protective, assessment 8 days after inoculation, read-out: % Wirkungsgrad. As for the experimental part: (§1) Solvent: 49 parts by weight N,N-dimethylacetamide Emulsifier: 1 part by weight alkylaryl polyglycol ethers For the preparation of a suitable active substance preparation, 1 part by weight of active substance is mixed with the stated quantities of solvent and emulsifier and the concentrate is diluted to the desired concentration with water. For the testing for protective activity, young plants are sprayed with the active substance preparation at the stated application dosage. After drying of the spray coating, the plants are sprayed with spores with a spore suspension of Leptosphaeria nodorum. […] 8 days after the inoculation, the assessment takes place.

Data set [2] deals with Fusarium graminearum. Kind of data set: whole plant or invertebrate. Type of data set: in vivo. The note with it: in Hordeum vulgare, 120 h, read-out: % Wirkungsgrad (activity level).
For the next data set, the system named is Venturia inaequalis. As to the kind of experiment: Example O: in vivo test on Venturia inaequalis (apple scab/protective). The note with it: 240 h, protective, assessment 10 days after inoculation, read-out: % Wirkungsgrad. The method, boiled down:
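Young plants received a preventive spray of compound formulated as an emulsifier-containing aqueous dilution at the given application rate, then were inoculated with apple scab fungus. Disease was scored 10 days post-inoculation.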

Another data set concerns Fusarium proliferatum. Kind of data set: Example I: production of fumonisin FB1 by Fusarium proliferatum (microtitre plates). Type of data set: cell-based. The note with it: 120 h.
The subject of another data set is Rhynchosporium secalis. Kind of data set: Example S: in vivo test on Rhynchosporium secalis (leaf scald in barley/protective). The note with it: 336 h, barley, protective, 1000 ppm active substance, assessed 14 days after inoculation, read-out: % Wirkungsgrad (activity level). As to the method: as §1, with “Rhynchosporium secalis.” for “Leptosphaeria nodorum.”, “14” for “8”

Data set [3] has as its system Fusarium graminearum. Kind of data set: microbe, parasite or virus in culture. Type of data set: cell-based.
Another data set concerns Aspergillus parasiticus. Kind of data set: microbe, parasite or virus in culture. It counts as cell-based. The note with it: 168 h.
The mark [4] stands for this setting: Fusarium proliferatum growth, OD 620, 5 days, read-out: % Inhibition des Pilzwachstums bei 50 μM.
[5] abbreviates: Fusarium proliferatum, 5 days at 20° C., HPLC-MS/MS, read-out: % Inhibition der FB1 produktion bei 50 μM.
[6] abbreviates: 72 h, read-out: % Inhibition des Pilzwachstums bei 50 μM.
Setting [7] is: 168 h, read-out: % Inhibition der DON/AcDON produktion bei 50 μM.
Where [8] appears, read: LogPA (logP of the stated pure compound or, in a mixture, of the main isomer, 1-substituted 3-aryl-1H-pyrazole).

For the compound `CCC(=O)Nc1cc(-c2cn(CC3CC3)nc2-c2ccc(F)cc2)ccn1` [Compound 214], the pest or weed control at 100 ppm in the data set on Plasmopara viticola and with Venturia inaequalis was 88% each time. Further, the chromatographic logP in the data set “physchem” (LogPA) is 2.2. Moreover, the pest or weed control at 250 ppm with Botrytis cinerea is 100%. The pest or weed control at 1000 ppm in [1] is 100%; in the data set on Septoria tritici, 100%; in the data set on Leptosphaeria nodorum, 71%; in the data set with Fusarium graminearum [2] it was 100%; with Rhynchosporium secalis it was 100%. The pest or weed control at 500 ppm with Sphaerotheca fuliginea was 100%; in the data set on Alternaria solani, 95%. Further, the inhibition at 50 µM is 96% in the data set on Fusarium proliferatum (setting [4]), 100% with Fusarium proliferatum (setting [5]), 100% in the data set on Fusarium graminearum [3] (setting [6]) and 93% in the data set with Fusarium graminearum [3] (setting [7]).

In the data set “physchem” (LogPA), `CCC(=O)Nc1cc(-c2cn(CC(F)F)nc2-c2ccc(F)cc2)ccn1` [Compound 215] had a chromatographic logP of 1.99. Further, the pest or weed control at 250 ppm in the data set with Botrytis cinerea stood at 98%. Further, the pest or weed control at 1000 ppm was determined as 100% in [1]; 94% in the data set with Septoria tritici; 71% in the data set with Leptosphaeria nodorum; 100% in the data set on Fusarium graminearum [2]; 90% in the data set on Rhynchosporium secalis. The pest or weed control at 500 ppm was 100% in the data set on Sphaerotheca fuliginea and 94% in the data set on Alternaria solani. The pest or weed control at 100 ppm in the data set with Venturia inaequalis worked out at 96%. Also, the inhibition at 50 µM in the data set with Fusarium proliferatum (setting [4]) amounted to 94%; with Fusarium proliferatum (setting [5]) it was 100%.

In “physchem” (LogPA), `CC(C)Cn1cc(-c2ccnc(N)n2)c(-c2ccc(F)cc2)n1` [Compound 184] returned a chromatographic logP of 1.81. For the same compound, in the data set with Botrytis cinerea, the pest or weed control at 250 ppm came out at 100%. The pest or weed control at 1000 ppm in data set [1] amounted to 100%; in the data set on Septoria tritici, 100%; with Leptosphaeria nodorum, 88%; in the data set with Fusarium graminearum [2] it was 100%; with Rhynchosporium secalis, 71%. The pest or weed control at 500 ppm in the data set with Sphaerotheca fuliginea and in the data set on Alternaria solani was 95% in each case. Moreover, the pest or weed control at 100 ppm with Venturia inaequalis was found to be 92%.

As for `CC(C)Cn1cc(-c2ccnc(NC(=O)C(C)C)c2)c(-c2ccc(F)cc2)n1` [Compound 87], the chromatographic logP in “physchem” (setting [8]) stood at 2.89. Also, the pest or weed control at 250 ppm in the data set with Botrytis cinerea is 100%. Moreover, the pest or weed control at 1000 ppm in [1] came to 92%; with Septoria tritici, 100%; in the data set with Leptosphaeria nodorum, 88%; with Fusarium graminearum [2] it was 100%; in the data set with Rhynchosporium secalis, 88%. The values for the pest or weed control at 500 ppm with Sphaerotheca fuliginea and in the data set with Alternaria solani were 100% and 95%, respectively. The inhibition at 50 µM in the data set with Aspergillus parasiticus (50 μM, 7 days at 20° C., read-out: Inhibition der Aflatoxin produktion bei 50 μM) was found to be 100%; in the data set with Aspergillus parasiticus (read-out: % Inhibition des Pilzwachstums bei 50 μM), 97%; in the data set with Fusarium proliferatum (setting [4]), 83%; in the data set on Fusarium proliferatum (setting [5]), 100%; in the data set with Fusarium graminearum [3] (setting [6]), 97%; with Fusarium graminearum [3] (setting [7]) it was 100%. Further, in the data set with Venturia inaequalis, the pest or weed control at 100 ppm was 95%.

For `CC(C)n1cc(-c2ccnc(NC(=O)[C@H](C)O)c2)c(-c2ccc(F)cc2)n1` [Compound 192], the pest or weed control at 100 ppm with Plasmopara viticola is 94%; in the data set with Venturia inaequalis, 95%. This compound had a chromatographic logP in “physchem” (LogPA) of 2.14. In addition, in the data set with Botrytis cinerea, the pest or weed control at 250 ppm was 100%. Also, the pest or weed control at 1000 ppm amounted to 100% in data set [1]; 100% in the data set on Septoria tritici; 86% in the data set on Leptosphaeria nodorum; 100% in the data set with Fusarium graminearum [2]; 71% in the data set on Rhynchosporium secalis. Also, the pest or weed control at 500 ppm in the data set with Sphaerotheca fuliginea is 85%; in the data set on Alternaria solani, 100%.

For the compound `CCC(=O)Nc1cc(-c2cn(C(C)CC)nc2-c2ccc(F)cc2)ccn1` (centres unmarked) [Compound 164], in “physchem” (setting [8]), the chromatographic logP worked out at 2.46. Besides, the pest or weed control at 1000 ppm in data set [1] is 100%; with Septoria tritici, 100%; with Leptosphaeria nodorum, 93%; with Fusarium graminearum [2] it was 100%; in the data set on Rhynchosporium secalis, 100%. For the same compound, the pest or weed control at 500 ppm came to 100% in the data set with Sphaerotheca fuliginea and 95% in the data set with Alternaria solani. Also, the pest or weed control at 100 ppm in the data set with Venturia inaequalis was 97%. Also, the inhibition at 50 µM turned out to be 97% in the data set with Fusarium proliferatum (setting [4]), 100% in the data set with Fusarium proliferatum (setting [5]), 100% in the data set on Fusarium graminearum [3] (setting [6]) and 99% with Fusarium graminearum [3] (setting [7]).

For `CC(C)C(=O)Nc1cc(-c2cn(CC3CC3)nc2-c2ccc(F)cc2)ccn1` [Compound 225], the pest or weed control at 100 ppm in the data set with Plasmopara viticola worked out at 90%; in the data set on Venturia inaequalis it was 96%. The compound also had a chromatographic logP in “physchem” (LogPA) of 2.54. Besides, the pest or weed control at 250 ppm with Botrytis cinerea turned out to be 96%. The pest or weed control at 1000 ppm in [1] came to 100%; in the data set on Septoria tritici it was 100%; in the data set on Leptosphaeria nodorum, 86%; in the data set on Fusarium graminearum [2], 100%; with Rhynchosporium secalis, 90%. Moreover, the pest or weed control at 500 ppm worked out at 100% in the data set with Sphaerotheca fuliginea and 95% in the data set on Alternaria solani. Further, the inhibition at 50 µM with Fusarium proliferatum (setting [4]) came out at 93%; in the data set on Fusarium proliferatum (setting [5]) it was 100%; in the data set on Fusarium graminearum [3] (setting [6]), 92%; with Fusarium graminearum [3] (setting [7]), 89%.

`CC(C)C(=O)Nc1cc(-c2cn(CC(F)F)nc2-c2ccc(F)cc2)ccn1` [Compound 218] came in with a chromatographic logP in the data set “physchem” (LogPA) of 2.29. Besides, the pest or weed control at 250 ppm in the data set on Botrytis cinerea was determined as 98%. Further, the pest or weed control at 1000 ppm in data set [1] came to 92%; in the data set on Septoria tritici it was 100%; in the data set on Leptosphaeria nodorum, 93%; with Fusarium graminearum [2] it was 100%; in the data set with Rhynchosporium secalis it was 100%. In addition, the pest or weed control at 500 ppm is 100% with Sphaerotheca fuliginea and 95% in the data set with Alternaria solani. The pest or weed control at 100 ppm with Venturia inaequalis was 95%. The results for the inhibition at 50 µM in the data set with Fusarium proliferatum (setting [4]) and in the data set with Fusarium proliferatum (setting [5]) were 79% and 100%, respectively.

As usually defined, the chromatographic logP is lipophilicity estimated from chromatographic retention.
